IC50 and Ki data for 2 compounds are collected here from publication PMC11645267, “Novel pharmacologic inhibition of lysine-specific demethylase 1 as a potential therapeutic for glioblastoma” (Cancer Gene Therapy, 2024).

For orientation: IC50 means the concentration that gives 50% inhibition. The Ki is a measure of affinity in units of concentration, obtained from inhibition or displacement.

The test system of one assay is GSC1228. Kind of assay: Cell proliferation assay (CellTiter-Glo 3D). Type of assay: cell-based. The note with it: GSC1228, 96 h; read-out: Growth inhibitory IC50 (GI50). How it is done:
(§1) Supplementary materials and methods […]
(§2) Cell lines and culture conditions […]
(§3) 2013 #1009}{Katsushima, 2016 #1156}. GSC cells were cultured in Neurobasal Medium (Life Technologies, Carlsbad, CA, USA) containing N2 and B27 supplements (Life Technologies) along with human recombinant basic fibroblast growth factor and epidermal growth factor (20 ng/ml each; R&D Systems, Minneapolis, MN, USA). Cells were cultured at 37°C in a humidified incubator with 5% CO2.
(§4) For the cell proliferation assay, cells at a density of 1 × 10^5 cells per well were seeded before treatment with LSD1 inhibitors. Cell proliferation was measured after 4 days using a Cell Counting Kit 8 (Dojindo, Kumamoto, Japan) according to the manufacturer ’s […]
(§5) instructions. For GSC cells, the CellTiter-Glo 3D Viability Assay (Promega, Madison, WI, USA) was used to measure the living cells. […]

Another assay deals with GSC222. Briefly: Cell proliferation assay (CellTiter-Glo 3D). Format: cell-based. The note with it: GSC222, 96 h; read-out: Growth inhibitory IC50 (GI50). The protocol: as §1, §2, §3, §4, §5
The subject of the next assay is GSC316. Kind of assay: Cell proliferation assay (CellTiter-Glo 3D). Type of assay: cell-based. The note with it: GSC316, 96 h; read-out: Growth inhibitory IC50 (GI50). The protocol: as §1, §2, §3, §4, §5
For orientation: In ATP-based viability assays light output follows the ATP content of the culture.

For the next assay, the system named is F3. Kind of assay: Cell proliferation assay (Cell Counting Kit 8). Format: cell-based. Particulars: 96 h; F3 (normal neural stem cell line), 4 days; read-out: Growth inhibitory IC50 (GI50).
Description: as §1
(§6) Cell lines and culture conditions
(§7) Glioblastoma cell line, LN229, was obtained from the American Type Culture Collection (ATCC, Manassas, VA, USA). Normal fibroblast cell lines TIG3 and WI-38, TM31 (low grade glioma) were obtained from the RIKEN Bioresource Research Center (Tsukuba, Japan). Onda10 and KINGS1 (low grade glioma) cell lines were obtained from the Japanese Collection of Research Bioresources (Ibaraki, Japan). F3 is utilized as a neural stem cell line{Kim, 2004 #1412}{Natsume, 2013 #1009}. All cells were maintained in DMEM medium (Wako, Osaka, Japan) containing 5% fetal bovine serum (FBS, Thermo Fisher Scientific, Waltham, MA, USA) and 1% penicillin-streptomycin (Wako). […]
as §4, §5
(Tetrazolium assays rely on reduction of a dye to a coloured formazan, in cell work by metabolically active cells.)

The subject of a further assay is KINGS1. Kind of assay: Cell proliferation assay (Cell Counting Kit 8). Particulars: Homo sapiens, KINGS-1, 96 h; KINGS1 (grade III glioma), 4 days; read-out: Growth inhibitory IC50 (GI50). Format: cell-based.
Description: as §1, §6, §7, §4, §5

A further assay has as its system LN229. Kind of assay: Cell proliferation assay (Cell Counting Kit 8). Type of assay: cell-based. Particulars: Homo sapiens, LN-229, 96 h; LN229 (GBM cell line), 4 days; read-out: Growth inhibitory IC50 (GI50).
Description: as §1, §6, §7, §4, §5

A further assay deals with Onda10. Briefly: Cell proliferation assay (Cell Counting Kit 8). Type of assay: cell-based. Particulars: 96 h; Onda10 (grade III glioma), 4 days; read-out: Growth inhibitory IC50 (GI50).
Description: as §1, §6, §7, §4, §5

The subject of the next assay is TIG3. Kind of assay: Cell proliferation assay (Cell Counting Kit 8). The note with it: Homo sapiens, TIG-3, 96 h; TIG3 (normal fibroblast), 4 days; read-out: Growth inhibitory IC50 (GI50). Format: cell-based.
Description: as §1, §6, §7, §4, §5

A further assay concerns TM31. Kind of assay: Cell proliferation assay (Cell Counting Kit 8). Type of assay: cell-based. Particulars: 96 h; TM31 (grade III glioma), 4 days; read-out: Growth inhibitory IC50 (GI50).
Description: as §1, §6, §7, §4, §5

Another assay concerns WI38. Briefly: Cell proliferation assay (Cell Counting Kit 8). Type of assay: cell-based. The note with it: Homo sapiens, WI-38, 96 h; WI38 (normal fibroblast), 4 days; read-out: Growth inhibitory IC50 (GI50).
Description: as §1, §6, §7, §4, §5

For the next assay, the target named is T1, LSD2 (Homo sapiens, UniProt Q8NB78).
T1 sequence (Q8NB78 1-822): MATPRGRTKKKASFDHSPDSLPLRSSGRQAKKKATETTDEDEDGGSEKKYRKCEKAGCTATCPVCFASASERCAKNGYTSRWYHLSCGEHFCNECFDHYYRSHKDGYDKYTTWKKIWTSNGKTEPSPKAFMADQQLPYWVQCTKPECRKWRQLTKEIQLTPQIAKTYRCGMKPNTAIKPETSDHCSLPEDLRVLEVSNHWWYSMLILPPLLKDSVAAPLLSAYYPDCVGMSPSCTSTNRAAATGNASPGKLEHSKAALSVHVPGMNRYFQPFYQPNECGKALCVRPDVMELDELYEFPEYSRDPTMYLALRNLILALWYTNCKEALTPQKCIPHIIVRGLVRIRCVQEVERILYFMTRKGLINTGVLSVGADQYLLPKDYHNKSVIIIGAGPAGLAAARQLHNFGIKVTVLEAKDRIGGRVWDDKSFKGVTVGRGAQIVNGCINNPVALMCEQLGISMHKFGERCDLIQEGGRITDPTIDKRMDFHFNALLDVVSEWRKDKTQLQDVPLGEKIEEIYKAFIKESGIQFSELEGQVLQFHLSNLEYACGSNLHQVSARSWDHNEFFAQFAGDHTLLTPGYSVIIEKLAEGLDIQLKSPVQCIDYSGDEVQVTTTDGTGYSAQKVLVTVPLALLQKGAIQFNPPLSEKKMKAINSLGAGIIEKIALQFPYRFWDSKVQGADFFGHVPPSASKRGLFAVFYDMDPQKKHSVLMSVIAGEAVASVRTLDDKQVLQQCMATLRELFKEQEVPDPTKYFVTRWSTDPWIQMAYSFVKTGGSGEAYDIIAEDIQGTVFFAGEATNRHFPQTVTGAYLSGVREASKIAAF
More on the design: method as in PMID 32166890. Particulars: cited from earlier work.

The target in a further assay is T2, MAO-A (Homo sapiens, UniProt P21397).
T2 sequence (P21397 1-527): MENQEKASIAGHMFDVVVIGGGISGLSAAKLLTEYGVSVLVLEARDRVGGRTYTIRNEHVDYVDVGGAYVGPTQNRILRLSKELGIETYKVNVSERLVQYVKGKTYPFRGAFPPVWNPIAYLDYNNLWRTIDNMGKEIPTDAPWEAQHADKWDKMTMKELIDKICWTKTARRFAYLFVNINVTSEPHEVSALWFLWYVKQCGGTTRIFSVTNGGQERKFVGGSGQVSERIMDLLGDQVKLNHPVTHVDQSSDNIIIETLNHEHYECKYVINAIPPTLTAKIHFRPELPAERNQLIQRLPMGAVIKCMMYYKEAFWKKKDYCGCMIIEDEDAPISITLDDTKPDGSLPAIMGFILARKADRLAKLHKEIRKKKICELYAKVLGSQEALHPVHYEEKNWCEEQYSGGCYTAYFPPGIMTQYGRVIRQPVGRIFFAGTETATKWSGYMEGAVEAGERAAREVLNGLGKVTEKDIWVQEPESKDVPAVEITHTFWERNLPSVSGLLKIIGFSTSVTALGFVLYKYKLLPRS
Particulars: cited from earlier work.

Another assay addresses T3, MAO-B (Homo sapiens, UniProt P27338).
T3 sequence (P27338 1-520): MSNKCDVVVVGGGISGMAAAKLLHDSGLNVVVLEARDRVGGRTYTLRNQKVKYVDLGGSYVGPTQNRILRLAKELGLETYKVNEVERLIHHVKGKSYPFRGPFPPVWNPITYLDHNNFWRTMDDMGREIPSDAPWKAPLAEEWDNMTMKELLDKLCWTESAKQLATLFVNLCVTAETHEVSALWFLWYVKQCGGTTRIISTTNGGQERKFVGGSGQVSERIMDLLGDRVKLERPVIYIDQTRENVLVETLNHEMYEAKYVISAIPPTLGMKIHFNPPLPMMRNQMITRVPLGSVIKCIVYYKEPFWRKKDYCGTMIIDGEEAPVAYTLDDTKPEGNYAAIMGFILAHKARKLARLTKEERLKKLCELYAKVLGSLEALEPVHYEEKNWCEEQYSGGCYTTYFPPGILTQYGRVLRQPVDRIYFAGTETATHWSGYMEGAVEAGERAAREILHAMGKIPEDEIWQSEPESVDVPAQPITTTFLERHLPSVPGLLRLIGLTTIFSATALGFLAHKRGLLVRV
The note with it: cited from earlier work.

For the compound `NC1CC1c1cc(F)cc(F)c1OCc1ccccc1` (stereo not drawn) [S2101], the concentration for half-maximal inhibition (IC50) in the assay with GSC1228 was > 40 µM; in the assay on GSC222 it was > 40 µM; in the assay with GSC316, > 40 µM; in the assay on F3, 26 µM; in the assay on KINGS1 it was 19 µM; with LN229, 12 µM. The half-inhibitory concentration (IC50) was 25 µM in the assay with Onda10, > 40 µM in the assay on TIG3, 6.9 µM with TM31 and > 40 µM with WI38. Besides, on LSD2, the inhibition constant Ki is > 250 µM.
As to `CN1CCN(C(=O)CNC2CC2c2cc(F)cc(F)c2OCc2ccccc2)CC1` (stereo not drawn) [S2157], the IC50 with GSC1228 was 19.7 µM; in the assay with GSC222 it was > 40 µM; in the assay on GSC316, > 40 µM; in the assay with F3, 36.5 µM; with KINGS1, > 40 µM; with LN229, > 40 µM. Besides, the IC50 is > 40 µM in the assay with Onda10, 33.3 µM in the assay on TIG3, 27 µM with TM31 and > 40 µM in the assay with WI38. The inhibition constant Ki at LSD2, on MAO-A and at MAO-B was > 250 µM each time.
